Values of other authors, collected in PMC7544826 (Communications Biology, 2020).

System: Notum
Design: method as in PMID 31876313
Details: read-out: IC50, Notum inhibition (reported potency); cited from earlier work

## COc1ccc2[nH]cc(CCNC(C)=O)c2c1 [melatonin]
  IC50: 75 µM
